# Read-outs that look alike come from different tables or passages of the source.
# Columns and labels:
# [1] = tested on: bloodstream-form T. b. brucei TbAK RNAi cells; assay: Drug sensitivity test (Alamar blue) on TbAK RNAi knock-down mutant; assay type: cell-based; conditions: Trypanosoma brucei
# Description: The construction of the T. b. brucei adenosine kinase gene knock-down mutant has been described recently. Expression of a stem-loop construct targeting TbAK was induced by addition of 10 µg/ml tetracycline to the medium. Down-regulation of TbAK expression was verified by Northern blotting. Parasites were cultivated and drug sensitivity was tested using the Alamar blue test. IC50 values were calculated by nonlinear fitting to the sigmoidal dose-response curve using Origin® software. The assays were performed in triplicates for at least four times.
# T. b. rhodesiense = tested on: T. b. rhodesiense; set-up: method as in PMID 17949068; conditions: in vitro, blood stage parasite; read-out: IC50 against blood stage T.b. rhodesiense; cited from earlier work
# [2] = biological target: T1, adenosine kinase of T. b. rhodesiense (TbrAK) (Trypanosoma brucei rhodesiense, UniProt Q584S0); assay: Thermal stability assay (CD spectroscopy) regarding TbrAK; assay type: binding
# T1 sequence (Q584S0 1-345): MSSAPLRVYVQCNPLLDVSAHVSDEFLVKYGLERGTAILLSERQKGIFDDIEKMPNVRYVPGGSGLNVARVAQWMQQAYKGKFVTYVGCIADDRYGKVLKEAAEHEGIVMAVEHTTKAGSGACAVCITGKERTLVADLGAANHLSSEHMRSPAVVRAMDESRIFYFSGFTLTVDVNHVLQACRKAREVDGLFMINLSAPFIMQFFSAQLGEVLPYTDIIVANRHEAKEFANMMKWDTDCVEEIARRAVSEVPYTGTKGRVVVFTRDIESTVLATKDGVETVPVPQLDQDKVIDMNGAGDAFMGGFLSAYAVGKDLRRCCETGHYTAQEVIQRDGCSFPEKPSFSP
# Description: Thermal unfolding of TbrGAPDH and TbrAK was studied by circular dichroism (CD) spectroscopy at 220 nm within the temperature range of 20–90°C using a heating rate of 40°C/h.
# TbrAK in buffer E1 (20 mM Hepes, 150 mM NaCl, pH 7.0) was used at 0.5 mg/ml (final concentration 13 µM). All measurements were done in a 0.5 mm cell and contained 0.1 % DMSO and 2.5 mM EDTA to prevent enzyme activity. Thermal stability was analyzed in presence of 500 µM substrate to record the maximum stability limit, whereas compounds 1 to 5 were used at a concentration of 50 µM, being the highest concentration achievable for compound 2, to allow comparison of all compounds at the same concentration. For evaluation of the CD spectra, the buffer spectrum was subtracted from the protein CD spectrum. All thermal unfolding curves were fitted to a two-state model that had been published recently. The mean of three independent experiments are reported. […]
# [3] = biological target: T1, adenosine kinase of T. b. rhodesiense (TbrAK); assay: Isothermal titration calorimetry (ITC) with TbrAK; assay type: binding; conditions: for Kd: two-sites non-interacting binding model
# Description: Isothermal titration calorimetry (ITC) was employed to elucidate the binding affinity of compound 1 toward TbrAK. All solutions were degassed for 5 min with gentle stirring under vacuum. TbrAK was dialyzed into buffer E2 (20 mM Tris, 150 mM NaCl, pH 7.5, 5% glycerol), diluted to 7 µM and supplemented with 1% DMSO, filtered and filled into the sample cell. The ligand solution was prepared by diluting a stock solution of compound 1 or 5 in DMSO with buffer E2 to give a final concentration of 150 µM and 1% DMSO. The final ligand solution was filtered before use. A titration experiment consisted of a first control injection of 1 µl followed by 27 injections, each of 10 µl and 20 s duration, with a 4-min interval in between. Raw data were collected, corrected for ligand heats of dilution, integrated and fit to the two-set non-interacting binding sites model using the Origin® software supplied with the instrument. The measurements were performed at least in duplicate.
# [4] = biological target: T1, adenosine kinase of T. b. rhodesiense (TbrAK); assay: HPLC activity assay for TbrAK; assay type: biochemical
# Description: TbrAK catalyzes the ATP-dependent phosphorylation of the 5′-hydroxyl moiety of adenosine to form AMP and ADP. The activity assay was based on HPLC separation of substrate and products (adenosine, AMP, ADP, and ATP). The mobile phase consisted of 35 mM KH2PO4, 6 mM tetrabutylammonium hydrogensulfate, (pH 7.0, adjusted with KOH), 125 mM EDTA, and 1% (v/v) acetonitrile. The separation was performed isocratically at a flow-rate of 1.5 ml/min and monitored at 254 nm. The standard reaction in 75 µl total volume containing 0.5 mM ATP, 0.5 mM adenosine, 0.5 mM MgCl2, 1% DMSO in buffer E1 (20 mM Hepes, 150 mM NaCl, pH 7.0) was started with the addition of 2 µg TbrAK (final concentration 0.7 µM) and incubated at 37°C for 10 min while shaking vigorously (600 rpm). […] All reactions were stopped by adding 75 µl mobile phase. 50 µl of the sample volume were injected for analysis and the resulting ADP/ATP ratios were calculated and used as a measure of activity. For comparative reasons the activity recorded in absence of compound was set to 100%. The mean of three independent measurements are reported.
# [5] = set-up: method as in PMID 17949068; conditions: cited from earlier work
compound,measurement,setting,value
"c1ccc(Oc2ccc(-c3cc(N4CCOCC4)[nH]n3)cc2)cc1 [compound 1, 4-[5-(4-phenoxyphenyl)-2H-pyrazol-3-yl]morpholine]",IC50,"[1]; read-out: IC50 on TbAK RNAi cells, induced",271 ± 25 nM
same,IC50,"[1]; read-out: IC50 on TbAK RNAi cells, non-induced",131 ± 43 nM
same,IC50,T. b. rhodesiense,1000 nM
same,Tm of TbrAK,"[2]; compound at 50 µM, 13 µM TbrAK",47.9±0.1 °C
same,ΔTm at 50 µM,[2]; read-out: ΔTm of TbrAK,4.8 °C
same,molecules of compound bound per molecule of enzyme,[3],two
same,"ΔHbind, high affinity binding site",[3],-3.05 ± 0.77 kcal/mol
same,"ΔHbind, low affinity binding site",[3],-1.13 ± 0.24 kcal/mol
same,Kd,"[3]; read-out: KD, high affinity binding site",75 ± 20 nM
same,Kd,"[3]; read-out: KD, low affinity binding site",497 ± 34 nM
same,activity at 50 µM,"[4]; 50 µM compound, 0.7 µM TbrAK, 10 min, 37°C, ADP/ATP ratio, read-out: TbrAK activity in presence of compound (% of activity without compound)",245 ± 3%
same,EC50,"[4]; 0.5 mM ATP, 0.5 mM adenosine, 0.7 µM TbrAK, read-out: EC50 of TbrAK activation (HPLC assay)",38.9 ± 0.9 µM
same,fold induction at 50 µM,"[4]; 10 min, pH 7, 50 µM compound, read-out: fold increase of TbrAK activity",2.5
same,concentration dependence of the activation effect,"[4]; range 1–750 µM, up to solubility limit",concentration dependent
same,cytotoxicity / general toxicity,[5],low cytotoxicity
